In ChEMBL document CHEMBL3627688, “Structure-based hybridization, synthesis and biological evaluation of novel tetracyclic heterocyclic azathioxanthone analogues as potential antitumor agents” (Eur J Med Chem, 2015):

Tests used:
SK-MEL-28 = test: Growth inhibition of human SK-MEL-28 cells assessed as cell growth at 10 uM incubated for 48 hrs by sulforhodamine B assay; format: functional; details: SK-MEL-28, 48 h, read-out: Activity
KM12 = test: Growth inhibition of human KM12 cells assessed as cell growth at 10 uM incubated for 48 hrs by sulforhodamine B assay; format: functional; details: KM12, 48 h, read-out: Activity
HCT-15 = test: Growth inhibition of human HCT15 cells assessed as cell growth at 10 uM incubated for 48 hrs by sulforhodamine B assay; format: functional; details: HCT-15, 48 h, read-out: Activity
[1] = Growth inhibition of human HCC2998 cells assessed as cell growth at 10 uM incubated for 48 hrs by sulforhodamine B assay; format: functional; details: HCC 2998, 48 h, read-out: Activity
NCI-H460 = test: Growth inhibition of human NCI-H460 cells assessed as cell growth at 10 uM incubated for 48 hrs by sulforhodamine B assay; format: functional; details: NCI-H460, 48 h, read-out: Activity
NCI-H322M = test: Growth inhibition of human NCI-H322M cells assessed as cell growth at 10 uM incubated for 48 hrs by sulforhodamine B assay; format: functional; details: read-out: Activity
NCI-H226 = test: Growth inhibition of human NCI-H226 cells assessed as cell growth at 10 uM incubated for 48 hrs by sulforhodamine B assay; format: functional; details: NCI-H226, 48 h, read-out: Activity
HOP-62 = test: Growth inhibition of human HOP62 cells assessed as cell growth at 10 uM incubated for 48 hrs by sulforhodamine B assay; format: functional; details: HOP-62, 48 h, read-out: Activity
[2] = Growth inhibition of human EKVX cells assessed as cell growth at 10 uM incubated for 48 hrs by sulforhodamine B assay; format: functional; details: read-out: Activity
SR = test: Growth inhibition of human SR cells assessed as cell growth at 10 uM incubated for 48 hrs by sulforhodamine B assay; format: functional; details: read-out: Activity
[3] = Growth inhibition of human RPMI8226 cells assessed as cell growth at 10 uM incubated for 48 hrs by sulforhodamine B assay; format: functional; details: RPMI-8226, 48 h, read-out: Activity
CCRF-CEM = test: Growth inhibition of human CCRF-CEM cells assessed as cell growth at 10 uM incubated for 48 hrs by sulforhodamine B assay; format: functional; details: read-out: Activity
OVCAR-3 = test: Growth inhibition of human OVCAR3 cells assessed as cell growth at 10 uM incubated for 48 hrs by sulforhodamine B assay; format: functional; details: OVCAR-3, 48 h, read-out: Activity
OVCAR-8 = test: Growth inhibition of human OVCAR8 cells assessed as cell growth at 10 uM incubated for 48 hrs by sulforhodamine B assay; format: functional; details: OVCAR-8, 48 h, read-out: Activity
786-0 = test: Growth inhibition of human 786-0 cells assessed as cell growth at 10 uM incubated for 48 hrs by sulforhodamine B assay; format: functional; details: 786-0, 48 h, read-out: Activity
ACHN = test: Growth inhibition of human ACHN cells assessed as cell growth at 10 uM incubated for 48 hrs by sulforhodamine B assay; format: functional; details: read-out: Activity
SN12C = test: Growth inhibition of human SN12C cells assessed as cell growth at 10 uM incubated for 48 hrs by sulforhodamine B assay; format: functional; details: read-out: Activity
TK-10 = test: Growth inhibition of human TK10 cells assessed as cell growth at 10 uM incubated for 48 hrs by sulforhodamine B assay; format: functional; details: TK-10, 48 h, read-out: Activity
PC-3 [4] = test: Growth inhibition of human PC3 cells assessed as cell growth at 10 uM incubated for 48 hrs by sulforhodamine B assay; format: functional; details: PC-3, 48 h, read-out: Activity
MCF7 = test: Growth inhibition of human MCF7 cells assessed as cell growth at 10 uM incubated for 48 hrs by sulforhodamine B assay; format: functional; details: MCF7, 48 h, read-out: Activity
MDA-MB-231 = test: Growth inhibition of human MDA-MB-231/ATCC cells assessed as cell growth at 10 uM incubated for 48 hrs by sulforhodamine B assay; format: functional; details: MDA-MB-231, 48 h, read-out: Activity
T47D = test: Growth inhibition of human T47D cells assessed as cell growth at 10 uM incubated for 48 hrs by sulforhodamine B assay; format: functional; details: read-out: Activity
MDA-MB-468 = test: Growth inhibition of human MDA-MB-468 cells assessed as cell growth at 10 uM incubated for 48 hrs by sulforhodamine B assay; format: functional; details: MDA-MB-468, 48 h, read-out: Activity
DU-145 = test: Antiproliferative activity against human DU145 cells assessed as cell viability incubated for 72 hrs by MTT assay; format: functional, cell-based; details: DU-145, 72 h
PC-3 [5] = test: Antiproliferative activity against human PC3 cells assessed as cell viability incubated for 72 hrs by MTT assay; format: functional, cell-based; details: PC-3, 72 h
SK-OV-3 = test: Growth inhibition of human SKOV3 cells assessed as cell growth at 10 uM incubated for 48 hrs by sulforhodamine B assay; format: functional; details: SK-OV-3, 48 h, read-out: Activity
A498 = test: Growth inhibition of human A498 cells assessed as cell growth at 10 uM incubated for 48 hrs by sulforhodamine B assay; format: functional; details: A498, 48 h, read-out: Activity

Row | SMILES | growth at 10 µM (SK-MEL-28) [%] | growth at 10 µM (KM12) [%] | growth at 10 µM (HCT-15) [%] | growth at 10 µM [1] [%] | growth at 10 µM (NCI-H460) [%] | growth at 10 µM (NCI-H322M) [%] | growth at 10 µM (NCI-H226) [%] | growth at 10 µM (HOP-62) [%] | growth at 10 µM (SR) [%] | growth at 10 µM [3] [%] | growth at 10 µM (CCRF-CEM) [%] | growth at 10 µM (OVCAR-3) [%] | growth at 10 µM (OVCAR-8) [%] | growth at 10 µM (786-0) [%] | growth at 10 µM (ACHN) [%] | growth at 10 µM (SN12C) [%] | growth at 10 µM (TK-10) [%] | growth at 10 µM (PC-3 [4]) [%] | growth at 10 µM (MCF7) [%] | growth at 10 µM (MDA-MB-231) [%] | also measured
1 | O=C(O)c1c(Sc2ccc(Cl)cc2)c(O)nc2ccccc12 | 99 | 113 | 108 | 101 | 104 | 101 | 106 | 116 | 106 | 98.1 | 98.3 | 121 | 115 | 104 | 113 | 95.8 | 118 | 93.2 | 92 | 95.7 | growth at 10 µM [2]: 89.5%; growth at 10 µM (T47D): 99.6%; growth at 10 µM (MDA-MB-468): 105%; IC50 (DU-145): > 15 µM; IC50 (PC-3 [5]): > 15 µM
2 | O=c1c2ccc(Cl)cc2sc2c(Cl)nc3ccccc3c12 | 102 | 111 | 102 | 123 | 103 | 100 | 83.4 | 82 | 89 | 100 | 93.1 | 111 | 102 | 105 | 86.8 | 95.9 | 109 | 91.6 | 82.6 | 84.3 | growth at 10 µM (SK-OV-3): 101%; growth at 10 µM (A498): 106%; growth at 10 µM (T47D): 110%; growth at 10 µM (MDA-MB-468): 98.6%; IC50 (DU-145): > 15 µM; IC50 (PC-3 [5]): > 15 µM
